Experimental data taken from patent publication US10611731B2, “5-methyl-6-phenyl-4,5-dihydro-2H-pyridazin-3-one derivative” (OTSUKA PHARMACEUTICAL CO., LTD., priority 2016, dated 2020).
Where two headings read alike, the source gives them in different places.

Experiments:
[1] = test system: human childhood brain tumor cell lines (PFSK-1); experiment: Growth inhibitory activity against PFSK-1 cells (WST-8, Cell Counting Kit-8); type: cell-based; settings: 3 days incubation with test compound, WST-8 OD 450/630 nm, read-out: IC50 (concentration inhibiting 50% of the cell growth)
Outline: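 Cells seeded in RPMI 1640 with 10% FBS and preincubated 24 h at 37 °C, 5% CO2, then exposed to compound for 3 days. IC50 (nM) from growth relative to untreated control.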

Structure (SMILES) | melting point | IC50 ([1]; Homo sapiens, 72 h) | IC50 [1]
CC1CC(=O)NN=C1c1ccc(OCCCCO)c(Cl)c1O (stereo not drawn) [Example 88, 6-[3-Chloro-2-hydroxy-4-(4-hydroxybutoxy)phenyl]-5-methyl-4,5-dihydro-2H-pyridazin-3-one] | 204.5 to 204.9 °C | 9.5 nM | –
Cc1cc(C2=NNC(=O)CC2C)cc(Cl)c1OCCO (stereo not drawn) [Example 4, 6-[3-Chloro-4-(2-hydroxyethoxy)-5-methylphenyl]-5-methyl-4,5-dihydro-2H-pyridazin-3-one] | 157.4 to 157.6 °C | – | –
Cc1c(OCCCCO)ccc(C2=NNC(=O)CC2C)c1O (stereo not drawn) [Example 87, 6-[2-Hydroxy-4-(4-hydroxybutoxy)-3-methylphenyl]-5-methyl-4,5-dihydro-2H-pyridazin-3-one] | 178.7 to 179.9 °C | 9.8 nM | –
Cc1cc(C2=NNC(=O)CC2C)cc(Cl)c1OCCCO (stereo not drawn) [Example 17, 6-[3-Chloro-4-(3-hydroxypropoxy)-5-methylphenyl]-5-methyl-4,5-dihydro-2H-pyridazin-3-one] | 129.7 to 132.6 °C | 2.9 nM | –
CC1CC(=O)NN=C1c1cc(Cl)c(OCCCO)c(Br)c1 (stereo not drawn) [Example 18, 6-[3-Bromo-5-chloro-4-(3-hydroxypropoxy)phenyl]-5-methyl-4,5-dihydro-2H-pyridazin-3-one] | 153 to 156.6 °C | 4 nM | –
CC1CC(=O)NN=C1c1ccc(OCC(F)(F)CO)c(Cl)c1O (stereo not drawn) [Example 162, 6-[3-Chloro-4-(2,2-difluoro-3-hydroxypropoxy)-2-hydroxyphenyl]-5-methyl-4,5-dihydro-2H-pyridazin-3-one] | – | 6.4 nM | –
CC(O)COc1c(F)cc(C2=NNC(=O)CC2C)cc1Br (stereo not drawn) [Example 50, 6-[3-Bromo-5-fluoro-4-(2-hydroxypropoxy)phenyl]-5-methyl-4,5-dihydro-2H-pyridazin-3-one] | – | 2.9 nM | –
C=Cc1c(OCCCCO)ccc(C2=NNC(=O)CC2C)c1F (stereo not drawn) [Example 89, 6-[2-Fluoro-4-(4-hydroxybutoxy)-3-vinylphenyl]-5-methyl-4,5-dihydro-2H-pyridazin-3-one] | 106.4 to 107.4 °C | 4.9 nM | –
CC1CC(=O)NN=C1c1cc(F)c(OCCCCO)c(Br)c1 (stereo not drawn) [Example 80, 6-[3-Bromo-5-fluoro-4-(4-hydroxybutoxy)phenyl]-5-methyl-4,5-dihydro-2H-pyridazin-3-one] | – | 5.1 nM | –
CC1CC(=O)NN=C1c1ccc(OCC(C)(C)CCO)c(F)c1F (stereo not drawn) [Example 102, 6-[2,3-Difluoro-4-(4-hydroxy-2,2-dimethylbutoxy)phenyl]-5-methyl-4,5-dihydro-2H-pyridazin-3-one] | – | 3.4 nM | –
CC1CC(=O)NN=C1c1ccc(OC[C@H]2C[C@@H]2CO)c(Cl)c1F (relative stereo) [Example 156, 6-(3-Chloro-2-fluoro-4-{[(1S*,2S*)-2-(hydroxymethyl)cyclopropyl]methoxy}phenyl)-5-methyl-4,5-dihydro-2H-pyridazin-3-one] | – | – | 2.9 nM
Cc1cc(C2=NNC(=O)CC2C)c(F)c(C)c1OCC(C)(C)O (stereo not drawn) [Example 132, 6-[2-Fluoro-4-(2-hydroxy-2-methylpropoxy)-3,5-dimethylphenyl]-5-methyl-4,5-dihydro-2H-pyridazin-3-one] | – | 3 nM | –
Cc1cc(C2=NNC(=O)CC2C)cc(F)c1OCC(C)O (stereo not drawn) [Example 56, 6-[3-Fluoro-4-(2-hydroxypropoxy)-5-methylphenyl]-5-methyl-4,5-dihydro-2H-pyridazin-3-one] | – | 7.6 nM | –
Cc1cc(C2=NNC(=O)CC2C)cc(Cl)c1OCC(C)(C)CCO (stereo not drawn) [Example 98, 6-[3-chloro-4-(4-hydroxy-2,2-dimethylbutoxy)-5-methylphenyl]-5-methyl-4,5-dihydro-2H-pyridazin-3-one] | – | 3.6 nM | –
Cc1cc(C2=NNC(=O)CC2C)cc(Cl)c1OC[C@@H](C)O (stereo partly drawn) [Example 40, 6-{3-chloro-4-[(2R)-2-hydroxypropoxy]-5-methylphenyl}-5-methyl-4,5-dihydro-2H-pyridazin-3-one] | – | 1.6 nM | –

Continued, values first:

melting point | IC50 ([1]; Homo sapiens, 72 h) | IC50 [1] | Structure (SMILES)
199.1 to 200.1 °C | 6.6 nM | – | Cc1c(OCCCO)ccc(C2=NNC(=O)CC2C)c1O (stereo not drawn) [Example 78, 6-[2-Hydroxy-4-(3-hydroxypropoxy)-3-methylphenyl]-5-methyl-4,5-dihydro-2H-pyridazin-3-one]
– | 5.5 nM | – | Cc1cc(C2=NNC(=O)CC2C)cc(C)c1OCC(C)O (stereo not drawn) [Example 51, 6-[4-(2-Hydroxypropoxy)-3,5-dimethylphenyl]-5-methyl-4,5-dihydro-2H-pyridazin-3-one]
– | 2.7 nM | – | CC1CC(=O)NN=C1c1cc(F)c(OCC(C)(C)CO)c(Cl)c1F (stereo not drawn) [Example 139, 6-[3-Chloro-2,5-difluoro-4-(3-hydroxy-2,2-dimethylpropoxy)phenyl]-5-methyl-4,5-dihydro-2H-pyridazin-3-one]
– | 2.3 nM | – | CC1CC(=O)NN=C1c1ccc(OCC(F)(F)CO)c(Br)c1F (stereo not drawn) [Example 112, 6-[3-bromo-4-(2,2-difluoro-3-hydroxypropoxy)-2-fluorophenyl]-5-methyl-4,5-dihydro-2H-pyridazin-3-one]
– | 1 nM | – | CC1CC(=O)NN=C1c1cc(F)c(OCC(C)(C)O)c(Cl)c1F (stereo not drawn) [Example 131, 6-[3-chloro-2,5-difluoro-4-(2-hydroxy-2-methylpropoxy)phenyl]-5-methyl-4,5-dihydro-2H-pyridazin-3-one]
– | 1.5 nM | – | Cc1cc(C2=NNC(=O)C[C@H]2C)cc(F)c1OCC(C)(C)CO [Example 125, (5R)-(−)-6-[3-fluoro-4-(3-hydroxy-2,2-dimethylpropoxy)-5-methylphenyl]-5-methyl-4,5-dihydro-2H-pyridazin-3-one]
– | 7.9 nM | – | Cc1c(OCC(C)(C)CO)ccc(C2=NNC(=O)CC2C)c1F (stereo not drawn) [Example 8, 6-[2-Fluoro-4-(3-hydroxy-2,2-dimethylpropoxy)-3-methylphenyl]-5-methyl-4,5-dihydro-2H-pyridazin-3-one]
– | 7.1 nM | – | CC1CC(=O)NN=C1c1ccc(OCC2(CO)CC2)c(F)c1F (stereo not drawn) [Example 145, 6-{2,3-Difluoro-4-[1-(hydroxymethyl)cyclopropylmethoxy]phenyl}-5-methyl-4,5-dihydro-2H-pyridazin-3-one]
– | 0.5 nM | – | CC(O)COc1ccc(C2=NNC(=O)CC2C)c(F)c1Cl (stereo not drawn) [Example 54, 6-[3-chloro-2-fluoro-4-(2-hydroxypropoxy)phenyl]-5-methyl-4,5-dihydro-2H-pyridazin-3-one]
– | 0.9 nM | – | CC(O)COc1ccc(C2=NNC(=O)CC2C)c(F)c1Br (stereo not drawn) [Example 48, 6-[3-bromo-2-fluoro-4-(2-hydroxypropoxy)phenyl]-5-methyl-4,5-dihydro-2H-pyridazin-3-one]
– | 1.1 nM | – | Cc1cc(C2=NNC(=O)CC2C)cc(Cl)c1OCC(F)(F)CO (stereo not drawn) [Example 113, 6-[3-chloro-4-(2,2-difluoro-3-hydroxypropoxy)-5-methylphenyl]-5-methyl-4,5-dihydro-2H-pyridazin-3-one]
– | 3.8 nM | – | C[C@@H]1CC(=O)NN=C1c1cc(F)c(OCCCO)c(F)c1 [Example 121, (5R)-(−)-6-[3,5-Difluoro-4-(3-hydroxypropoxy)phenyl]-5-methyl-4,5-dihydro-2H-pyridazin-3-one]
225 to 225.3 °C | 5.3 nM | – | CC1CC(=O)NN=C1c1ccc(OCCCO)c(Cl)c1O (stereo not drawn) [Example 77, 6-[3-Chloro-2-hydroxy-4-(3-hydroxypropoxy)phenyl]-5-methyl-4,5-dihydro-2H-pyridazin-3-one]
– | < 1 nM | – | Cc1cc(C2=NNC(=O)CC2C)c(F)c(Cl)c1OCC(C)O (stereo not drawn) [Example 148, 6-[3-Chloro-2-fluoro-4-(2-hydroxypropoxy)-5-methylphenyl]-5-methyl-4,5-dihydro-2H-pyridazin-3-one]
